How the values were obtained:
Settings in all cases: 48 h
NOMO1 [1] = experiment: cell viability relative to DMSO control; higher = less cytotoxic
How it was run: (§1)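 Before seeding, each leukemia line was adapted for at least four passages in each medium. NOMO1 or SEM cells (500 cells/well) and P12-Ichikawa cells (1000 cells/well) went into 1536-well plates at 5 μl, then received library compounds in DMSO by pin dosing across 11 threefold concentrations, 47 μM to 0.79 nM. Readout was CellTiter-Glo One luminescence after 48 h at 37°C, and viability is given as a per-plate percentage of DMSO wells, with cell-free wells as background.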

P12-Ichikawa [2] = experiment: as above
How it was run: as §1

SEM cells [3] = experiment: as above
How it was run: as §1

NOMO1 [4] = experiment: AUC of viability dose-response curve (% viability x log10 dose units); higher = less sensitive
How it was run: (§2)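 Leukemia cells adapted to each medium were seeded in 1536-well plates (500 or 1000 cells/well). They were dosed with library compounds in DMSO at 11 threefold doses, 47 μM to 0.79 nM, for 48 h at 37°C. CellTiter-Glo One luminescence was normalised per plate to DMSO and cell-free wells. Area under the curve was integrated by trapezoidal rule over log10 doses on a four-parameter log-logistic fit; curves exceeding full viability were scaled and curves failing quality control removed.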

P12-Ichikawa [5] = experiment: as above
How it was run: as §2

SEM cells [6] = experiment: as above
How it was run: as §2

C=CC(=O)Nc1cccc(Oc2nc(Nc3ccc(N4CCN(C)CC4)cc3)ncc2Cl)c1
cell viability [%]
Settings	NOMO1 [1]	P12-Ichikawa [2]	SEM cells [3]
HPLM + 10% dialyzed FBS, 0.000781 µM	93.3	109	94.3
HPLM + 10% dialyzed FBS, 0.00234 µM	110	123	112
HPLM + 10% dialyzed FBS, 0.00702 µM	119	123	109
HPLM + 10% dialyzed FBS, 0.0211 µM	125	122	116
HPLM + 10% dialyzed FBS, 0.0632 µM	131	131	128
HPLM + 10% dialyzed FBS, 0.19 µM	112	130	111
HPLM + 10% dialyzed FBS, 0.569 µM	106	122	104
HPLM + 10% dialyzed FBS, 1.71 µM	97.2	113	83
HPLM + 10% dialyzed FBS, 5.12 µM	88.3	102	22.1
HPLM + 10% dialyzed FBS, 15.4 µM	84.9	22.4	21.6
HPLM + 10% dialyzed FBS, 46.1 µM	135	52.5	22.2
RPMI 5 mM glucose + 10% dialyzed FBS, 0.000781 µM	–	–	108
RPMI 5 mM glucose + 10% dialyzed FBS, 0.00234 µM	–	–	107
RPMI 5 mM glucose + 10% dialyzed FBS, 0.00702 µM	–	–	125
RPMI 5 mM glucose + 10% dialyzed FBS, 0.0211 µM	–	–	124
RPMI 5 mM glucose + 10% dialyzed FBS, 0.0632 µM	–	–	128
RPMI 5 mM glucose + 10% dialyzed FBS, 0.19 µM	–	–	111
RPMI 5 mM glucose + 10% dialyzed FBS, 0.569 µM	–	–	103
RPMI 5 mM glucose + 10% dialyzed FBS, 1.71 µM	–	–	71.8
RPMI 5 mM glucose + 10% dialyzed FBS, 5.12 µM	–	–	21.1
RPMI 5 mM glucose + 10% dialyzed FBS, 15.4 µM	–	–	15
RPMI 5 mM glucose + 10% dialyzed FBS, 46.1 µM	–	–	10.4

AUC of viability dose-response curve
Settings	NOMO1 [4]	P12-Ichikawa [5]	SEM cells [6]
HPLM + 10% dialyzed FBS	465	420	369
RPMI 5 mM glucose + 10% FBS	454	392	303
RPMI 5 mM glucose + 10% dialyzed FBS	459	421	351

CC[C@H](CC[C@@H](C)[C@H]1CC[C@H]2[C@@H]3C\C=C/4C[C@@H](O)CC[C@]4(C)[C@H]3CC[C@]12C)C(C)C
cell viability [%]
Settings	NOMO1 [1]	P12-Ichikawa [2]	SEM cells [3]
HPLM + 10% dialyzed FBS, 0.000781 µM	97.3	117	119
HPLM + 10% dialyzed FBS, 0.00234 µM	126	111	130
HPLM + 10% dialyzed FBS, 0.00702 µM	123	123	123
HPLM + 10% dialyzed FBS, 0.0211 µM	117	119	139
HPLM + 10% dialyzed FBS, 0.0632 µM	131	112	129
HPLM + 10% dialyzed FBS, 0.19 µM	124	111	128
HPLM + 10% dialyzed FBS, 0.569 µM	114	111	114
HPLM + 10% dialyzed FBS, 1.71 µM	107	110	116
HPLM + 10% dialyzed FBS, 5.12 µM	95.6	99.4	116
HPLM + 10% dialyzed FBS, 15.4 µM	55.5	103	122
HPLM + 10% dialyzed FBS, 46.1 µM	35.6	75.9	95.8
RPMI 5 mM glucose + 10% FBS, 0.000781 µM	103	112	117
RPMI 5 mM glucose + 10% FBS, 0.00234 µM	114	119	114
RPMI 5 mM glucose + 10% FBS, 0.00702 µM	113	120	126
RPMI 5 mM glucose + 10% FBS, 0.0211 µM	106	121	119
RPMI 5 mM glucose + 10% FBS, 0.0632 µM	108	120	131
RPMI 5 mM glucose + 10% FBS, 0.19 µM	115	118	116
RPMI 5 mM glucose + 10% FBS, 0.569 µM	102	111	124
RPMI 5 mM glucose + 10% FBS, 1.71 µM	103	107	110
RPMI 5 mM glucose + 10% FBS, 5.12 µM	96.1	106	115
RPMI 5 mM glucose + 10% FBS, 15.4 µM	92.4	108	114
RPMI 5 mM glucose + 10% FBS, 46.1 µM	22.3	92.2	92.3
RPMI 5 mM glucose + 10% dialyzed FBS, 0.000781 µM	105	110	124
RPMI 5 mM glucose + 10% dialyzed FBS, 0.00234 µM	120	118	144
RPMI 5 mM glucose + 10% dialyzed FBS, 0.00702 µM	114	110	122
RPMI 5 mM glucose + 10% dialyzed FBS, 0.0211 µM	107	107	115
RPMI 5 mM glucose + 10% dialyzed FBS, 0.0632 µM	116	108	147
RPMI 5 mM glucose + 10% dialyzed FBS, 0.19 µM	107	110	126
RPMI 5 mM glucose + 10% dialyzed FBS, 0.569 µM	97.3	109	125
RPMI 5 mM glucose + 10% dialyzed FBS, 1.71 µM	102	103	129
RPMI 5 mM glucose + 10% dialyzed FBS, 5.12 µM	93.5	103	138
RPMI 5 mM glucose + 10% dialyzed FBS, 15.4 µM	72.5	105	121
RPMI 5 mM glucose + 10% dialyzed FBS, 46.1 µM	26.3	93.1	94.6

AUC of viability dose-response curve
Settings	NOMO1 [4]	P12-Ichikawa [5]	SEM cells [6]
HPLM + 10% dialyzed FBS	420	448	452
RPMI 5 mM glucose + 10% FBS	449	453	469
RPMI 5 mM glucose + 10% dialyzed FBS	431	446	467

C[C@]\12CC[C@H](O)CC1=C/CC3C2CC[C@@]\4(C)C3C\C=C4[N]5C=NC6=C5C=CC=C6 (some centres undefined)
cell viability [%]
Settings	NOMO1 [1]	P12-Ichikawa [2]	SEM cells [3]
HPLM + 10% dialyzed FBS, 0.000781 µM	95.5	94.2	90.4
HPLM + 10% dialyzed FBS, 0.00234 µM	110	95.5	82.4
HPLM + 10% dialyzed FBS, 0.00702 µM	99.5	102	99.7
HPLM + 10% dialyzed FBS, 0.0211 µM	96.7	106	103
HPLM + 10% dialyzed FBS, 0.0632 µM	105	103	61.4
HPLM + 10% dialyzed FBS, 0.19 µM	115	105	97.7
HPLM + 10% dialyzed FBS, 0.569 µM	117	105	109
HPLM + 10% dialyzed FBS, 1.71 µM	102	104	115
HPLM + 10% dialyzed FBS, 5.12 µM	97	107	109
HPLM + 10% dialyzed FBS, 15.4 µM	116	106	114
HPLM + 10% dialyzed FBS, 46.1 µM	110	107	101
RPMI 5 mM glucose + 10% FBS, 0.000781 µM	96.4	82.9	96.1
RPMI 5 mM glucose + 10% FBS, 0.00234 µM	99	94.2	93.3
RPMI 5 mM glucose + 10% FBS, 0.00702 µM	100	93.8	101
RPMI 5 mM glucose + 10% FBS, 0.0211 µM	103	112	121
RPMI 5 mM glucose + 10% FBS, 0.0632 µM	112	107	96.6
RPMI 5 mM glucose + 10% FBS, 0.19 µM	109	106	97
RPMI 5 mM glucose + 10% FBS, 0.569 µM	117	105	109
RPMI 5 mM glucose + 10% FBS, 1.71 µM	101	105	115
RPMI 5 mM glucose + 10% FBS, 5.12 µM	99.2	102	117
RPMI 5 mM glucose + 10% FBS, 15.4 µM	125	99.5	113
RPMI 5 mM glucose + 10% FBS, 46.1 µM	100	98.5	104
RPMI 5 mM glucose + 10% dialyzed FBS, 0.000781 µM	84.8	89.6	99.8
RPMI 5 mM glucose + 10% dialyzed FBS, 0.00234 µM	101	97.4	88.9
RPMI 5 mM glucose + 10% dialyzed FBS, 0.00702 µM	97.3	103	106
RPMI 5 mM glucose + 10% dialyzed FBS, 0.0211 µM	124	108	115
RPMI 5 mM glucose + 10% dialyzed FBS, 0.0632 µM	110	103	102
RPMI 5 mM glucose + 10% dialyzed FBS, 0.19 µM	122	102	103
RPMI 5 mM glucose + 10% dialyzed FBS, 0.569 µM	117	103	108
RPMI 5 mM glucose + 10% dialyzed FBS, 1.71 µM	113	100	119
RPMI 5 mM glucose + 10% dialyzed FBS, 5.12 µM	104	107	109
RPMI 5 mM glucose + 10% dialyzed FBS, 15.4 µM	105	104	109
RPMI 5 mM glucose + 10% dialyzed FBS, 46.1 µM	112	102	112

AUC of viability dose-response curve
Settings	NOMO1 [4]	P12-Ichikawa [5]	SEM cells [6]
HPLM + 10% dialyzed FBS	461	469	428
RPMI 5 mM glucose + 10% FBS	454	465	455
RPMI 5 mM glucose + 10% dialyzed FBS	461	470	466
